“And” between values parts separate entries of the source, which are not always exact repeats. Equal values may be shown once. Marks after values point to notes of the source that are not given here.
Tested on: wild-type (CD-1) mice
Assay: Daily bolus SC injection of NC2st on bone growth in wild-type (CD-1) mice
Assay type: in vivo
Procedure: The study was designed to evaluate the relationship between different doses of NC2st and the pharmacologic response on bone. The relationship was evaluated by measuring the effect of increasing doses of NC2st (SEQ ID NO: 502; as described, e.g., in Example 1) on bone growth in wild-type (WT, CD-1) mice. Bone growth response of wild-type and Fgfr3^369/+ (ACH) mice was compared.
CD-1 mice are a standard rodent species for use in pharmacodynamic studies. Briefly, nursing mothers with fostered female pups of 13 to 16 days were obtained. At the age of 21 days, pups were weaned and randomized based on body weight into treatment groups.
The animals received NC2st as a subcutaneous injection into the interscapular region as described in Table 11 below.
CD-1 mice were treated at 3 weeks old at the indicated doses for 35 consecutive days, followed by necropsy 24 hours after the last injection.
Ex vivo radiographs of whole body, rib cage, and skull were taken using a Faxitron model MX-20 DC4 under constant conditions (26 kV, 10 sec at 1×, 3× and 3× magnification, respectively). Bone measurements were performed on the radiographic images of all animals in a blinded fashion using the software Image Processing and Analysis in Java (ImageJ).
Bone samples were cleaned of excess tissue (not scraped) and fixed. Length of femur and tibia was measured using a caliper.

[1] = day 36, Tx-10 (10 mg/kg SC once daily)
[2] = day 36, Tx-30 (30 mg/kg SC once daily)

NC2st: Fc-CNP fusion: Strep-tag II, TEV site, human IgG-1 Fc, 16-amino acid glycine-rich linker, CNP22; SEQ ID NO: 502
treatment time after which crown-rump length in vivo differed significantly from Vehicle (Tx-30): 2 weeks
treatment time after which tail length in vivo differed significantly from Vehicle (Tx-30): 2 weeks
treatment time after which tibia length in vivo differed significantly from Vehicle (Tx-30): 4 weeks
treatment time after which crown-rump length in vivo differed significantly from Vehicle (Tx-100): 2 weeks
treatment time after which tail length in vivo differed significantly from Vehicle (Tx-100): 2 weeks
treatment time after which tibia length in vivo differed significantly from Vehicle (Tx-100): 2 weeks
% Δ Cervical segment (X-Ray) compared to Vehicle [1]: 8.8%
% Δ Circularity index (X-Ray) compared to Vehicle [1]: −1.9%
% Δ Crown-rump length in vivo compared to Vehicle [1]: 4.4%
% Δ Foramen magnum height compared to Vehicle [1]: 1.2%
% Δ Foramen magnum width compared to Vehicle [1]: 1.3%
% Δ Left Femur length compared to Vehicle [1]: 3.3%
% Δ Left Humerus length compared to Vehicle [1]: 1.6%
% Δ Left Tibia length compared to Vehicle [1]: 2.8%
% Δ Left Ulna length compared to Vehicle [1]: 0.71%
% Δ Lumbar segment (X-Ray) compared to Vehicle [1]: 6.2%
% Δ Metatarsal bone (3rd digit) (X-Ray) compared to Vehicle [1]: 5.2%
% Δ Naso-anal length (X-Ray) compared to Vehicle [1]: 6.5%
% Δ Occipital-front distance (X-Ray) compared to Vehicle [1]: 1.4%
% Δ Right Tibia length in vivo compared to Vehicle [1]: 1.1%
% Δ Sternum length (X-Ray) compared to Vehicle [1]: 6.9%
% Δ Tail length in vivo compared to Vehicle [1]: 6.1%
% Δ Thoracic segment (X-Ray) compared to Vehicle [1]: 11.4%
% Δ Total CTL segments (X-Ray) compared to Vehicle [1]: 8.9%
Cervical segment (X-Ray) [1]: 9.00 mm
Circularity index (X-Ray) [1]: 0.370
Crown-rump length in vivo [1]: 99.1 mm
Foramen magnum height [1]: 4.13 mm
Foramen magnum width [1]: 4.72 mm
Left Femur length [1]: 15.6* mm
Left Humerus length [1]: 12.4 mm
Left Tibia length [1]: 18.5 mm
Left Ulna length [1]: 14.1 mm
Lumbar segment (X-Ray) [1]: 20.5* mm
Metatarsal bone (3rd digit) (X-Ray) [1]: 24.5* mm
Naso-anal length (X-Ray) [1]: 115* mm
Occipital-front distance (X-Ray) [1]: 42.9 mm
Right Tibia length in vivo [1]: 19.0 mm
Sternum length (X-Ray) [1]: 38.5* mm
Tail length in vivo [1]: 102 mm
Thoracic segment (X-Ray) [1]: 25.5* mm
Total CTL segments (X-Ray) [1]: 55.0* mm
Δ Cervical segment (X-Ray) compared to Vehicle [1]: 0.73 mm
Δ Circularity index (X-Ray) compared to Vehicle [1]: −0.007
Δ Crown-rump length in vivo compared to Vehicle [1]: 4.2 mm
Δ Foramen magnum height compared to Vehicle [1]: 0.05 mm
Δ Foramen magnum width compared to Vehicle [1]: 0.06 mm
Δ Left Femur length compared to Vehicle [1]: 0.5 mm
Δ Left Humerus length compared to Vehicle [1]: 0.2 mm
Δ Left Tibia length compared to Vehicle [1]: 0.5 mm
Δ Left Ulna length compared to Vehicle [1]: 0.10 mm
Δ Lumbar segment (X-Ray) compared to Vehicle [1]: 1.2 mm
Δ Metatarsal bone (3rd digit) (X-Ray) compared to Vehicle [1]: 1.2 mm
Δ Naso-anal length (X-Ray) compared to Vehicle [1]: 7.0 mm
Δ Occipital-front distance (X-Ray) compared to Vehicle [1]: 0.6 mm
Δ Right Tibia length in vivo compared to Vehicle [1]: 0.20 mm
Δ Sternum length (X-Ray) compared to Vehicle [1]: 2.5 mm
Δ Tail length in vivo compared to Vehicle [1]: 5.9 mm
Δ Thoracic segment (X-Ray) compared to Vehicle [1]: 2.6 mm
Δ Total CTL segments (X-Ray) compared to Vehicle [1]: 4.5 mm
% Δ Cervical segment (X-Ray) compared to Vehicle [2]: 13.8%
% Δ Circularity index (X-Ray) compared to Vehicle [2]: −4.0%
% Δ Crown-rump length in vivo compared to Vehicle [2]: 7.5%
% Δ Foramen magnum height compared to Vehicle [2]: 0.98%
% Δ Foramen magnum width compared to Vehicle [2]: 1.5%
% Δ Left Femur length compared to Vehicle [2]: 6.0%
% Δ Left Humerus length compared to Vehicle [2]: 2.5%
% Δ Left Tibia length compared to Vehicle [2]: 5.0%
% Δ Left Ulna length compared to Vehicle [2]: 3.6%
% Δ Lumbar segment (X-Ray) compared to Vehicle [2]: 9.3%
% Δ Metatarsal bone (3rd digit) (X-Ray) compared to Vehicle [2]: 6.4%
% Δ Naso-anal length (X-Ray) compared to Vehicle [2]: 9% and 9.3%
% Δ Occipital-front distance (X-Ray) compared to Vehicle [2]: 1.2%
% Δ Right Tibia length in vivo compared to Vehicle [2]: 3.2%
% Δ Sternum length (X-Ray) compared to Vehicle [2]: 10.8%
% Δ Tail length in vivo compared to Vehicle [2]: 10.3%
% Δ Thoracic segment (X-Ray) compared to Vehicle [2]: 14.4%
% Δ Total CTL segments (X-Ray) compared to Vehicle [2]: 12.3%
Cervical segment (X-Ray) [2]: 9.41* mm
Circularity index (X-Ray) [2]: 0.362
Crown-rump length in vivo [2]: 102* mm
Foramen magnum height [2]: 4.12 mm
Foramen magnum width [2]: 4.73 mm
Left Femur length [2]: 16.0* mm
